The results in this text go back to patent US20060173048A1, “Imidazole derivatives” (priority 2005, published 2006).

The target in one series is T1, rat mGlu2 receptor (Rattus norvegicus, UniProt P31421).
T1 construct: expressed in transfected cells; host or cells: CHO cells, stably transfected (G-418 selection); membranes were prepared from them
The experiment in a line: [3H]-LY354740 binding on mGlu2 transfected CHO cell membranes. The settings on record: displacement of 10 nM [3H]-LY354740, membranes of CHO cells transfected with rat mGlu2, room temperature, 1 hour. The text has this:
[^3H]-LY354740 Binding on mGlu2 Transfected CHO Cell Membranes. Transfection and Cell Culture
cDNA encoding the rat mGlu2 receptor protein in pBluescript II was subcloned into the eukaryotic expression vector pcDNA I-amp from Invitrogen Ltd (Paisley, UK). This vector construct (pcD1mGR^2) was co-transfected with a psvNeo plasmid encoding the gene for neomycin resistance, into CHO cells by a modified calcium phosphate method described by Chen & Okayama (1988). The cells were maintained in Dulbecco's Modified Eagle medium with reduced L-glutamine (2 mM final concentration) and 10% dialysed foetal calf serum from Gibco-Invitrogen (Carlsbad, Calif., USA). Selection was made in the presence of G-418 (1000 ug/ml final) and […]. Clones were identified by reverse transcription of 5 μg total RNA, followed by PCR using mGlu2 receptor specific primers 5′-[…]-3′ and 540 -[…]-3′ in 60 mM Tris HCl (pH 10), 15 mM (NH4)2SO4, 2 mM MgCl2, 25 units/ml Taq Polymerase with 30 cycles annealing at 60° C. for 1 min., extention at 72° C. for 30 s, and 1 min. 95° C. denaturation.
Cells, cultured as above, were harvested and washed three times with cold PBS and frozen at −80° C. The pellet was resuspended in cold 20 mM HEPES-NaOH buffer containing 10 mM EDTA (pH 7.4), and homogenised with a polytron (Kinematica, AG, Littau, Switzerland) for 10 s at 10 000 rpm. After centrifugation for 30 min. at 4° C., the pellet was washed once with the same buffer, and once with cold 20 mM HEPES-NaOH buffer containing 0.1 mM EDTA, (pH 7.4). Protein content was measured using the micro BCA method from Pierce-Perbio (Rockford, Ill., USA) using bovine serum albumin as standard.
After thawing, the membranes were resuspended in cold 50 mM Tris-HCl buffer containing 2 mM MgCl2 (pH 7) (binding buffer). The final concentration of the membranes in the assays was 25 μg protein/ml. Inhibition experiments were performed with membranes incubated with 10 nM [^3H]-LY354740 at room temperature, for 1 hour, in presence of various concentrations of the compound to be tested. Following the incubations, membranes were filtered onto Whatmann GF/B glass fiber filters and washed 5 times with cold binding buffer. Non specific binding was measured in the presence of 10 μM DCG IV. After transfer of the filters into plastic vials containing 10 ml of Ultima-gold scintillation fluid from Perkin-Elmer (Boston, Mass., USA), the radioactivity was measured by liquid scintillation in a Tri-Carb 2500 TR counter (Packard, Zürich, Switzerland).
The inhibition curves were fitted with a four parameter logistic equation giving IC50 values, and Hill coefficients.

T1 sequence (P31421 19-872): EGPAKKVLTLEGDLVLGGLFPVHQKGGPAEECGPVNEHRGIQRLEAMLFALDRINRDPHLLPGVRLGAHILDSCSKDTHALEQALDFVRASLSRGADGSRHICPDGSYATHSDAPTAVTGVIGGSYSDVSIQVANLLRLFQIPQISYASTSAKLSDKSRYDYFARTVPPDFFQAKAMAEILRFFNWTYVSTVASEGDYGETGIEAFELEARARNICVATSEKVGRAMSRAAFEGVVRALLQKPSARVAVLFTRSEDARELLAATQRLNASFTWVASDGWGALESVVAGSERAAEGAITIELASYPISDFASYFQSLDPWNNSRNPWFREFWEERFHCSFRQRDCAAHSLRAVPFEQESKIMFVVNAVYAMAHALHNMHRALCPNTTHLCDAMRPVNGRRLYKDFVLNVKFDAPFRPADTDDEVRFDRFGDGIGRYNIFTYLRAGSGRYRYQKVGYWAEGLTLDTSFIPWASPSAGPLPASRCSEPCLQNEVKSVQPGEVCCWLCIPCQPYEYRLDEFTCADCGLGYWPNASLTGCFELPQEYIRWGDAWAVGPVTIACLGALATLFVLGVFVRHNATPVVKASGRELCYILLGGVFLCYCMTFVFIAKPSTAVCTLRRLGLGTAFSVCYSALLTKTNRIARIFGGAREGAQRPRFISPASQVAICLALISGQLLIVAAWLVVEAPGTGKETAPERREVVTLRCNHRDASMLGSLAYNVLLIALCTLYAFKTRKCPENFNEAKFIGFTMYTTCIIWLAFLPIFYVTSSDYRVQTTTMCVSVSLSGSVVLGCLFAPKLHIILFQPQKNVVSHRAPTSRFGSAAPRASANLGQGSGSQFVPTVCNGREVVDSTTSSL

`Cn1c(-c2c(Cl)cccc2Cl)nc(-c2ccncc2)c1-c1ccc(Cl)cc1` [Example 3, 4-[5-(4-Chloro-phenyl)-2-(2,6-dichloro-phenyl)-1-methyl-1H-imidazol-4-yl]-pyridine]: the melting point was 257 to 260 °C. Also, affinity on rat mGlu2 receptor was put at a Ki of 7 nM.

Compound `CCn1c(-c2c(Cl)cccc2Cl)nc(-c2ccncc2)c1-c1ccc(C)cc1` [Example 11, 4-[2-(2,6-Dichloro-phenyl)-1-ethyl-5-(4-methyl-phenyl)-1H-imidazol-4-yl]-pyridine] displayed a melting point of 191 to 193 °C. This compound showed a Ki at rat mGlu2 receptor of 13 nM.

For the compound `C=CCn1c(-c2c(Cl)cccc2Cl)nc(-c2ccncc2)c1-c1ccc(C)cc1` [Example 19, 4-[1-Allyl-2-(2,6-dichloro-phenyl)-5-(4-methyl-phenyl)-1H-imidazol-4-yl]-pyridine], the melting point was 147 to 149 °C. The Ki at rat mGlu2 receptor worked out at 34 nM.

For the compound `Cc1cc(C)c(-c2nc(-c3ccncc3)c(-c3ccc(Cl)cc3)n2CCO)c(C)c1` [Example 26, 2-[5-(4-Chloro-phenyl)-4-pyridin-4-yl-2-(2,4,6-trimethyl-phenyl)-imidazol-1-yl]-ethanol], on rat mGlu2 receptor, the Ki was 63 nM.

`Clc1ccc(-c2c(-c3ccncc3)nc(-c3c(Cl)cccc3Cl)n2C2CC2)cc1` [Example 27, 4-[5-(4-Chloro-phenyl)-1-cyclopropyl-2-(2,6-dichloro-phenyl)-1H-imidazol-4-yl]-pyridine] showed a melting point of 210 to 211 °C. Affinity at rat mGlu2 receptor was put at a Ki of 21 nM.

Turning to `CCCC(CCC)c1nc(-c2ccncc2)c(-c2ccc(Cl)cc2)n1CC` [Example 37, 4-[5-(4-Chloro-phenyl)-1-ethyl-2-(1-propyl-butyl)-1H-imidazol-4-yl]-pyridine], the melting point is 152 to 155 °C. Further, the Ki on rat mGlu2 receptor came to 49 nM.

`CCn1c(C(c2ccccc2)c2ccccc2)nc(-c2ccncc2)c1-c1ccc(Cl)cc1` [Example 39, 4-[2-Benzhydryl-5-(4-chloro-phenyl)-1-ethyl-1H-imidazol-4-yl]-pyridine]: the melting point was in the range of 199 to 200 °C.

Turning to `CCn1c(C(O)(C(C)C)C(C)C)nc(-c2ccncc2)c1-c1ccc(Cl)cc1` [Example 41, 3-[5-(4-Chloro-phenyl)-1-ethyl-4-pyridin-4-yl-1H-imidazol-2-yl]-2,4-dimethyl-pentan-3-ol], the melting point lay in the range of 221 to 223 °C.

Compound `C=CCC(O)(CC=C)c1nc(-c2ccncc2)c(-c2ccc(Cl)cc2)n1CC` [Example 42, 4-[5-(4-Chloro-phenyl)-1-ethyl-4-pyridin-4-yl-1H-imidazol-2-yl]-hepta-1,6-dien-4-ol] returned a melting point of 159 to 160 °C.

`CCn1c(C(O)(C2CC2)C2CC2)nc(-c2ccncc2)c1-c1ccc(Cl)cc1` [Example 43, [5-(4-Chloro-phenyl)-1-ethyl-4-pyridin-4-yl-1H-imidazol-2-yl]-dicyclopropyl-methanol] came in with a melting point of 185 to 188 °C. Affinity at rat mGlu2 receptor was put at a Ki of 111 nM.

With `CCn1c(C(O)(c2ccccc2)c2ccccc2)nc(-c2ccncc2)c1-c1ccc(Cl)cc1` [Example 44, [5-(4-Chloro-phenyl)-1-ethyl-4-pyridin-4-yl-1H-imidazol-2-yl]-diphenyl-methanol], the melting point lay within 222 to 223 °C.

For `CCn1c(C(O)(c2cccc(C(F)(F)F)c2)c2cccc(C(F)(F)F)c2)nc(-c2ccncc2)c1-c1ccc(Cl)cc1` [Example 45, [5-(4-Chloro-phenyl)-1-ethyl-4-pyridin-4-yl-1H-imidazol-2-yl]-bis-(3-trifluoromethyl-phenyl)-methanol], the melting point is 193 to 195 °C.

Compound `CCn1c(C(O)(c2cccc(F)c2)c2cccc(F)c2)nc(-c2ccncc2)c1-c1ccc(Cl)cc1` [Example 46, [5-(4-Chloro-phenyl)-1-ethyl-4-pyridin-4-yl-1H-imidazol-2-yl]-bis-(3-fluoro-phenyl)-methanol] displayed a melting point of 225 to 227 °C.

`CCn1c(C(O)(C2CCCCC2)C2CCCCC2)nc(-c2ccncc2)c1-c1ccc(Cl)cc1` [Example 47, [5-(4-Chloro-phenyl)-1-ethyl-4-pyridin-4-yl-1H-imidazol-2-yl]-dicyclohexyl-methanol] came in with a melting point of 221 to 224 °C. Also, the Ki on rat mGlu2 receptor came out at 18 nM.

`CCn1c(C(O)(Cc2ccccc2)Cc2ccccc2)nc(-c2ccncc2)c1-c1ccc(Cl)cc1` [Example 48, 2-[5-(4-Chloro-phenyl)-1-ethyl-4-pyridin-4-yl-1H-imidazol-2-yl]-1,3-diphenyl-propan-2-ol] had a melting point of 116 to 117 °C.

`CCCn1c(-c2c(Cl)cccc2Cl)nc(-c2ccncc2)c1-c1ccc(Cl)cc1` [Example 49, 4-[5-(4-Chloro-phenyl)-2-(2,6-dichloro-phenyl)-1-propyl-1H-imidazol-4-yl]-pyridine] returned a melting point of 220 to 222 °C.

Turning to `CCCn1c(-c2c(Cl)cccc2Cl)nc(-c2ccncc2)c1-c1ccc(C)cc1` [Example 50, 4-[2-(2,6-Dichloro-phenyl)-1-propyl-5-(4-methyl-phenyl)-1H-imidazol-4-yl]-pyridine], the melting point was in the range of 200 to 201 °C.

With `CCCn1c(-c2c(C)cc(C)cc2C)nc(-c2ccncc2)c1-c1ccc(C)cc1` [Example 51, 4-[1-Propyl-5-(4-methyl-phenyl)-2-(2,4,6-trimethyl-phenyl)-1H-imidazol-4-yl]-pyridine], the melting point was 134 to 136 °C.

As for `CCn1c(C(OCCO)(c2cccc(C(F)(F)F)c2)c2cccc(C(F)(F)F)c2)nc(-c2ccncc2)c1-c1ccc(Cl)cc1` [Example 52, 2-[[5-(4-Chloro-phenyl)-1-ethyl-4-pyridin-4-yl-1H-imidazol-2-yl]-bis-(3-trifluoromethyl-phenyl)-methoxy]-ethanol], the melting point was 222 to 223 °C.

As to `CCn1c(C(c2cccc(F)c2)c2cccc(F)c2)nc(-c2ccncc2)c1-c1ccc(Cl)cc1` [Example 53, 4-[2-[Bis-(3-fluoro-phenyl)-methyl]-5-(4-chloro-phenyl)-1-ethyl-1H-imidazol-4-yl]-pyridine], the melting point lay within 184 to 186 °C.

Consider `CCn1c(-c2c(Cl)cccc2Cl)nc(-c2ccnc(Cl)c2)c1-c1ccc(Cl)cc1` [Example 54, 2-Chloro-4-[5-(4-chloro-phenyl)-2-(2,6-dichloro-phenyl)-1-ethyl-1H-imidazol-4-yl]-pyridine], for which the melting point lay in the range of 187 to 189 °C.

`CCn1c(-c2c(Cl)cccc2Cl)nc(-c2ccnc(OC)c2)c1-c1ccc(Cl)cc1` [Example 55, 4-[5-(4-Chloro-phenyl)-2-(2,6-dichloro-phenyl)-1-ethyl-1H-imidazol-4-yl]-2-methoxy-pyridine] displayed a melting point of 138 to 140 °C.

As a reminder, the Ki is the dissociation constant of the complex between target and ligand, obtained from inhibition or displacement. Read a high Ki as lower affinity. In general, melting point refers to the temperature, or range, at which the solid turns liquid.
